Source: patent US20090082329A1 (AVENTIS PHARMA S.A., priority 2006, published 2009)
Like-named read-outs stand apart in the source and are kept apart here.

Tests used:
MEF-IGF1R cells = assay: Proliferation/viability of MEF-IGF1R (Thymidine [14C] incorporation); assay type: cell-based; conditions: rhIGF1 100 ng/mL, incubation 72 hours, read-out: Test C IC50
Description: C) Measurement of the Proliferation/Viability of MEF-IGF1R
Cell culture: the MEF-IGF1R cells (stable clone of cells transfected with the receptor hIGF-1R) are cultured at 37° C. under 5% CO2 in EMEM medium containing 10% FCS.
Test procedure: the cells are seeded at 5000 cells per well in 96-well Cytostar plates (Amersham) with 0.2 mL of EMEM culture medium at 37° C. for 18 hours. The cells are then washed twice with EMEM medium and left to culture without serum for 24 hours. The compounds are then added at various concentrations in the presence of rhIGF1 (100 ng/mL) and 0.1 μCi of Thymidine [^14C] (specific activity ˜50 mCi/mmol) to give 0.2 mL of volume per well. After incubation for 72 hours in the presence of the compound, at 37° C. under 5% CO2, the incorporation of Thymidine [^14C] is measured by counting the radioactivity on a Microbeta trilux counter (Perkin-Elmer). The IC50 is determined from 10 increasing concentrations of the compound.
(§1) (i) The tests are performed in duplicate and the mean of the two tests is calculated.
(§2) (ii) The value of the signal of the maximum response is calculated from the positive control: cells stimulated with IGF1 without compound.
(§3) (iii) Value of the signal of the minimum response is calculated from the negative control: cells not stimulated with IGF1 without compound.
(§4) (iv) By using these values as maximum (100%) and minimum (0%), respectively, the data were normalized so as to give a percentage of the maximum response.
(§5) (v) A curve of dose response is plotted and the IC50 (the concentration of which the compound induces a 50% decrease in the signal) of the compound is calculated by non-linear regression analysis.

IGF-1R in MCF7 cells = IGF-1R in MCF7 cells (Homo sapiens, UniProt P08069); assay: Autophosphorylation of IGF-1R in MCF7 cells after stimulation with IGF-1 (ELISA); assay type: cell-based; parameters: endogenous in cells; host or cells: MCF-7 cells; conditions: MCF-7 cells, compound added one hour before stimulation with IGF1; read-out: Test B IC50
Description: B) Measurement of the Autophosphorylation of IGF-1R in MCF7 Cells after Stimulation with IGF-1
Cell Culturing and Execution of the Test:
The autophosphorylation of IGF1R in the IGF1-induced cells is evaluated by means of an ELISA technique (Enzyme Linked ImmunoSorbent Assay). The MCF-7 are seeded at 60 000 cells per well in 6-well plates and incubated at 37° C., 5% CO2 in medium containing 10% serum. After one night in 10% serum, the cells are deprived of serum for 24 hours. The compounds are added to the medium one hour before stimulation with IGF1. After 10 minutes of stimulation with IGF1, the cells are lysed with a buffer (Hepes 50 mM pH 7.6, Triton X100 1%, orthovanadate 2 mM, protease inhibitor cocktail). The cell lysates are incubated on a 96-well plate precoated with an anti-IGF1R antibody, followed by incubation with an anti-phosphotyrosine antibody coupled to the enzyme peroxidase. The level of peroxidase activity (measured by OD with a luminescent substrate) reflects the phosphorylation status of the receptor.
as §1, §2, §3, §4, §5

[1] = molecular target: T1, human cytoplasmic domain of IGF-1R (Homo sapiens, UniProt P08069); assay: Kinase IGF-1R test: inhibition of autophosphorylation of the enzyme (HTRF); assay type: biochemical; conditions: ATP 120 μM
T1 construct: The human cytoplasmic domain of IGF-1R was cloned by fusion with glutathione S-transferase (GST); made in house; host or cells: SF21 insect cells (baculovirus, pFastBac-GST)
Description: A) Experimental Protocol for the Kinase IGF-1R Test:
The inhibitory activity of the compounds on IGF1R is determined by measuring the inhibition of autophosphorylation of the enzyme using a time-resolved fluorescence test (HTRF). The human cytoplasmic domain of IGF-1R was cloned by fusion with glutathione S-transferase (GST) in the baculovirus expression vector pFastBac-GST. The protein is expressed in the SF21 cells and purified to about 80% homogeneity. For the enzymatic test, the test compound at 10 mM dissolved in DMSO is diluted in ⅓ steps in a 50 mM Hepes, pH 7.5, 5 mM MnCl2, 50 mM NaCl, 3% Glycerol, 0.025% Tween 20 buffer. To measure the inhibition, the successive dilutions of the compound are preincubated for 30 minutes and 90 minutes in the presence of 5 nM of enzyme, the final DMSO concentration not exceeding 1%. The enzymatic reaction is initiated to have a final ATP concentration of 120 μM, and is stopped after 5 minutes by addition of 100 mM Hepes, pH 7.0 buffer containing 0.4 M of potassium fluoride, 133 mM EDTA, 0.1% BSA, the XL665-labelled antibody anti-GST and the anti-phosphotyrosine antibody conjugated to europium cryptate Eu—K (Cis-Bio Int.). The characteristics of the two fluorophores, XL-665 and Eu—K, are available in G. Mathis et al., Anticancer Research, 1997, 17, pages 3011-3014. The energy transfer between the excited europium cryptate to the acceptor XL665 is proportional to the degree of autophosphorylation of IGF-1R. The specific long-lasting signal of XL-665 is measured in a GENios Pro TECAN plate counter. The inhibition of autophosphorylation of IGF-1R at time 30 minutes and 90 minutes with the test compounds of the invention is calculated relative to a 1% in DMSO control, whose activity is measured in the absence of compound. The curve representing the percentage of inhibition as a function of the log of the concentration is established to determine the concentration corresponding to 50% inhibition (IC50),

[2] = preincubation 30 minutes with 5 nM enzyme, read-out: Test A 30′ IC50
[3] = preincubation 90 minutes with 5 nM enzyme, read-out: Test A 90′ IC50

T1 sequence (P08069 960-1367 limits assumed): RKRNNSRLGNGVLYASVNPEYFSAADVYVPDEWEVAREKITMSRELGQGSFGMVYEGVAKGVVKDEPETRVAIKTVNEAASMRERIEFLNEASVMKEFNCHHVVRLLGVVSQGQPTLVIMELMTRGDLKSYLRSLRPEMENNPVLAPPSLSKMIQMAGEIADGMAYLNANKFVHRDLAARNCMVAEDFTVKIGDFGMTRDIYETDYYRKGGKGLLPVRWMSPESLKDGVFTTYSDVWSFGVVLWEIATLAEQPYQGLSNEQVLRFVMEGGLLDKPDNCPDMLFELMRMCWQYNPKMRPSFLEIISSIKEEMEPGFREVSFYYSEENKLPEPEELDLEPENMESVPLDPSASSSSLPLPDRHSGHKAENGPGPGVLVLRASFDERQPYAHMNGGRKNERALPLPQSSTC
Chain of IGF-1R in MCF7 cells (P08069 31-1367): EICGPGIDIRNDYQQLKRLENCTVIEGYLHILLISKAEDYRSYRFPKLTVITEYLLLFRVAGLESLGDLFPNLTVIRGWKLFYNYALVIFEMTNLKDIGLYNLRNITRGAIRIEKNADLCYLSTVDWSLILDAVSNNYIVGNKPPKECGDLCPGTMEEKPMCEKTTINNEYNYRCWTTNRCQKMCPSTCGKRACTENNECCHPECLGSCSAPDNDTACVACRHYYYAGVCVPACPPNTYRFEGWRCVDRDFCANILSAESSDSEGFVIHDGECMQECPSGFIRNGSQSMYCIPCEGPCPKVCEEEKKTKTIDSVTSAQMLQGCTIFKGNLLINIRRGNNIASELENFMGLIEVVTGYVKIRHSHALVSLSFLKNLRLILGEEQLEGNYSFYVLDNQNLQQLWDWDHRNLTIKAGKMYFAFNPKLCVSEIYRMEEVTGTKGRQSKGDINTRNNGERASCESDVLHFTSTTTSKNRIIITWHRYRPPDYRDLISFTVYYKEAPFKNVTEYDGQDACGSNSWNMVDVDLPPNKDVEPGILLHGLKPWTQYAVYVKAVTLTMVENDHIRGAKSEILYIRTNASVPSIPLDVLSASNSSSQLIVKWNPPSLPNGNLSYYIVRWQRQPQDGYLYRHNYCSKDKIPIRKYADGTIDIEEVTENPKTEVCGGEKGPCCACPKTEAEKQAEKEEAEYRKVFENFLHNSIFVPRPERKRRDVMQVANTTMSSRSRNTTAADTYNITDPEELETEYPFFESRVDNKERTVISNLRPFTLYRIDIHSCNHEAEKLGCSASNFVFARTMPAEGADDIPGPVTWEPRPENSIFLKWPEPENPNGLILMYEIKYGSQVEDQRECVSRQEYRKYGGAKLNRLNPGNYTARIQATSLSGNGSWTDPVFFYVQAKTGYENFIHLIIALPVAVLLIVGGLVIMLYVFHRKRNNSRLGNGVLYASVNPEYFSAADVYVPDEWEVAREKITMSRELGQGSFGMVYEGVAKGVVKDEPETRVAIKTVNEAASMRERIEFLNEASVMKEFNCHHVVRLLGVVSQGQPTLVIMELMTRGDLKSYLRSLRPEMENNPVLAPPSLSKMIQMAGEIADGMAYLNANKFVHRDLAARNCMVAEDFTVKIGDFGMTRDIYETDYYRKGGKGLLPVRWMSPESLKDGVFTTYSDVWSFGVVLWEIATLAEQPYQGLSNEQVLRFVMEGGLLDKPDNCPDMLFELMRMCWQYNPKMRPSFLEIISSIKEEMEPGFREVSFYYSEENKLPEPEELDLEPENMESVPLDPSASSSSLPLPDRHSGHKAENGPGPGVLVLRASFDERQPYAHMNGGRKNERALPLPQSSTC

| SMILES | IC50 (IGF-1R in MCF7 cells) [nM] | IC50 [1, 2] [nM] | IC50 [1, 3] [nM] | IC50 (MEF-IGF1R cells) [nM] |
| --- | --- | --- | --- | --- |
| CC1(C)C(=O)N(c2ccc(SC(F)(F)F)cc2)C(=O)N1Cc1ccnc(NC(=O)NCCN2CCCC2)c1 [Example 20, 1-{4-[(5,5-dimethyl-2,4-dioxo-3-{4-[(trifluoro-methyl)thio]phenyl}imidazolidin-1-yl)methyl]pyridin-2-yl}-3-(2-pyrrolidin-1-ylethyl)urea] | > 100 | > 100 | > 100 | > 100 |
| CC1(C)C(=O)N(c2ccc(SC(F)(F)F)cc2)C(=O)N1Cc1ccnc(NC(=O)N2CCC2)c1 [Example 27, N-{4-[(5,5-dimethyl-2,4-dioxo-3-{4-[(trifluoro-methyl)thio]phenyl}imidazolidin-1-yl)methyl]pyridin-2-yl}azetidine-1-carboxamide] | 10 to 100 | 10 to 100 | 10 to 100 | < 10 |
| CC1(C)C(=O)N(c2ccc(SC(F)(F)F)cc2)C(=O)N1Cc1ccnc(NC(=O)N2CCOCC2)c1 [Example 29, N-{4-[(5,5-dimethyl-2,4-dioxo-3-{4-[(trifluoro-methyl)thio]phenyl}imidazolidin-1-yl)methyl]pyridin-2-yl}morpholine-4-carboxamide] | 10 to 100 | 10 to 100 | 10 to 100 | 10 to 100 |
| CN1CCN(C(=O)Nc2cc(CN3C(=O)N(c4ccc(SC(F)(F)F)cc4)C(=O)C3(C)C)ccn2)CC1 [Example 30, N-{4-[(5,5-dimethyl-2,4-dioxo-3-{4-[(trifluoro-methyl)thio]phenyl}imidazolidin-1-yl)methyl]pyridin-2-yl}-4-methylpiperazine-1-carboxamide] | 10 to 100 | 10 to 100 | < 10 | > 100 |
| CCN(C)C(=O)Nc1cc(CN2C(=O)N(c3ccc(SC(F)(F)F)cc3)C(=O)C2(C)C)ccn1 [Example 34, 3-{4-[(5,5-dimethyl-2,4-dioxo-3-{4-[(trifluoro-methyl)thio]phenyl}imidazolidin-1-yl)methyl]pyridin-2-yl}-1-ethyl-1-methylurea] | 10 to 100 | 10 to 100 | 10 to 100 | 10 to 100 |
| CCCN(C)C(=O)Nc1cc(CN2C(=O)N(c3ccc(SC(F)(F)F)cc3)C(=O)C2(C)C)ccn1 [Example 35, 3-{4-[(5,5-dimethyl-2,4-dioxo-3-{4-[(trifluoromethyl)thio]phenyl}imidazolidin-1-yl)methyl]pyridin-2-yl}-1-methyl-1-propylurea] | 10 to 100 | 10 to 100 | 10 to 100 | 10 to 100 |
| CCCCN(C)C(=O)Nc1cc(CN2C(=O)N(c3ccc(SC(F)(F)F)cc3)C(=O)C2(C)C)ccn1 [Example 36, 1-butyl-3-{4-[(5,5-dimethyl-2,4-dioxo-3-{4-[(trifluoromethyl)thio]phenyl}imidazolidin-1-yl)methyl]pyridin-2-yl}-1-methylurea] | 10 to 100 | 10 to 100 | 10 to 100 | 10 to 100 |
| CN(C)CCCNC(=O)Nc1cc(CN2C(=O)N(c3ccc(SC(F)(F)F)cc3)C(=O)C2(C)C)ccn1 [Example 39, 1-[3-(dimethylamino)propyl]-3-{4-[(5,5-dimethyl-2,4-dioxo-3-{4-[(trifluoromethyl)thio]phenyl}imidazolidin-1-yl)methyl]pyridin-2-yl}urea] | > 100 | 10 to 100 | 10 to 100 | > 100 |
| CC1(C)C(=O)N(c2ccc(SC(F)(F)F)cc2)C(=O)N1Cc1ccnc(Nc2cccc(F)c2)c1 [Example 40C, 1-({2-[(3-fluorophenyl)amino]pyridin-4-yl}methyl)-5,5-dimethyl-3-{4-[(trifluoromethyl)thio]phenyl}imidazolidine-2,4-dione] | 10 to 100 | > 100 | 10 to 100 | 10 to 100 |
| CC1(C)C(=O)N(c2ccc(SC(F)(F)F)cc2)C(=O)N1Cc1ccnc(NC2CC2)c1 [Example 40D, 1-{[2-(cyclopropylamino)pyridin-4-yl]methyl}-5,5-dimethyl-3-{4-[(trifluoromethyl)thio]phenyl}imidazolidine-2,4-dione] | 10 to 100 | 10 to 100 | 10 to 100 | > 100 |

Further lines, with some results ahead:

| IC50 (IGF-1R in MCF7 cells) [nM] | IC50 [1, 2] [nM] | IC50 [1, 3] [nM] | SMILES | IC50 (MEF-IGF1R cells) [nM] |
| --- | --- | --- | --- | --- |
| < 10 | 10 to 100 | 10 to 100 | CC1(C)C(=O)N(c2ccc(SC(F)(F)F)cc2)C(=O)N1Cc1ccnc(NC(=O)NC2CCCC2)c1 [Example 19, 1-cyclopentyl-3-{4-[(5,5-dimethyl-2,4-dioxo-3-{4-[(trifluoromethyl)thio]phenyl}imidazolidin-1-yl)methyl]pyridin-2-yl}urea] | 10 to 100 |
| 10 to 100 | 10 to 100 | 10 to 100 | CC1(C)C(=O)N(c2ccc(SC(F)(F)F)cc2)C(=O)N1Cc1ccnc(NC(=O)NCCCCN2CCCC2)c1 [Example 21, 1-{4-[(5,5-dimethyl-2,4-dioxo-3-{4-[(trifluoro-methyl)thio]phenyl}imidazolidin-1-yl)methyl]pyridin-2-yl}-3-(4-pyrrolidin-1-ylbutyl)urea] | > 100 |
| 10 to 100 | 10 to 100 | 10 to 100 | CC1(C)C(=O)N(c2ccc(SC(F)(F)F)cc2)C(=O)N1Cc1ccnc(NC(=O)NC2CC2)c1 [Example 22, 1-cyclopropyl-3-{4-[(5,5-dimethyl-2,4-dioxo-3-{4-[(trifluoromethyl)thio]phenyl}imidazolidin-1-yl)methyl]pyridin-2-yl}urea] | 10 to 100 |
| 10 to 100 | 10 to 100 | 10 to 100 | CC1(C)C(=O)N(c2ccc(SC(F)(F)F)cc2)C(=O)N1Cc1ccnc(NC(=O)NC2CCC2)c1 [Example 23, 1-cyclobutyl-3-{4-[(5,5-dimethyl-2,4-dioxo-3-{4-[(trifluoromethyl)thio]phenyl}imidazolidin-1-yl)methyl]pyridin-2-yl}urea] | 10 to 100 |
| < 10 | 10 to 100 | 10 to 100 | CC1(C)C(=O)N(c2ccc(SC(F)(F)F)cc2)C(=O)N1Cc1ccnc(NC(=O)N2CCCC2)c1 [Example 28, N-{4-[(5,5-dimethyl-2,4-dioxo-3-{4-[(trifluoromethyl)thio]phenyl}imidazolidin-1-yl)methyl]pyridin-2-yl}pyrrolidine-1-carboxamide] | 10 to 100 |
